Test results from ChEMBL document CHEMBL1201862, “PubChem BioAssay data set” (2004).
Active and inactive are the calls of the source.

Tests used:
[1] = target: Mannose-6-phosphate isomerase (Homo sapiens, UniProt P34949); assay: MPI inhibition at elevated mannose 6-phosphate – biochemical, fluorescence intensity, high mannose 6-phosphate, primary screen (AID 1220)
[2] = Trypanosoma cruzi growth suppression in host cells – NIH3T3 host cells, beta-gal luminescence, confirmation (AID 2044); assay type: functional, cell-based;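 further: intracellular parasites grown in NIH/3T3 mouse fibroblasts as host cells; luminescent beta-galactosidase reporter signal from transgenic T. cruzi replicating inside host cells; inhibitors lower the luminescence signal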
[3] = Luminescence Cell-Based Secondary HTS screen to identify cytotoxic compounds of NIH3T3 cells. [Related pubchem assays: 1885, 1968 ]; assay type: functional
[4] = NIH3T3 cell viability loss – ATP luminescence, mouse fibroblasts, counter-screen, dose response (AID 2010); assay type: functional, cell-based;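 further: cells exposed to compound for about 90 hours before reading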
[5] = viability inhibitors of stage V gametocytes – luminescence, dose response (AID 1117278); assay type: functional, cell-based;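 further: gametocytes exposed to compound for 24 hours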
[6] = viability loss in human Jurkat cells – cell-based, luminescence, cytotoxicity control for P. falciparum gametocyte viability project, dose response (AID 1117277); assay type: functional;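 further: potency reflects loss of cellular ATP meaning fewer viable cells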
[7] = target: Solute carrier family 12 member 2/member 5 (Homo sapiens, UniProt P55011+Q9H2X9); assay: KCC2 and NKCC1 inhibition by rubidium flux, cell-based, NKCC1 counter-screen (AID 1734); assay type: functional, HEK293
Ephrin type-A receptor 4 = Ephrin type-A receptor 4 (Mus musculus, UniProt Q03137); assay: EphA4 ligand-binding antagonists – biochemical, colorimetric, mouse EphA4, primary screen (AID 689); assay type: functional
14-3-3 protein gamma = 14-3-3 protein gamma (Homo sapiens, UniProt P61981); assay: modulators of 14-3-3 gamma client binding – dose response (AID 711); assay type: functional
[8] = target: Luciferin 4-monooxygenase (Photinus pyralis, UniProt P08659); assay: inhibition of purified Photinus pyralis luciferase – biochemical, luminescence, dose response (AID 1891)
[9] = Luminescence Cell-Based Dose Confirmation HTS to Identify Inhibitors of Platelet Dense Granule Release. [Related pubchem assays: 1663 (Primary HTS), 1678 (Summary of Project)]; assay type: functional
[10] = microbe, parasite or virus in culture; assay type: functional; conditions: Mycobacterium tuberculosis
[11] = THP-1 cell cytotoxicity, dose response, cytotoxicity control for non-replicating M. tuberculosis project (AID 489025); assay type: functional
[12] = Vero E6 cell cytotoxicity, dose response, cytotoxicity control for non-replicating M. tuberculosis project, secondary assay (AID 492998); assay type: functional, VeroE6; conditions: Vero C1008
cells = assay type: functional
[13] = bead-based luminescence quenchers, dual-tagged ARNT – biochemical, AlphaScreen, cherry-pick, artefact control for ARNT-TACC3 interaction inhibitor project, dose response (AID 651705); assay type: functional;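 further: AlphaScreen bead proximity signal that flags compounds interfering with the detection technology; potency reflects signal decrease which marks the compound as an assay artifact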
[14] = inhibition of ARNT PAS-B/TACC3 complex formation – biochemical, AlphaScreen, cherry-picked samples, confirmation (AID 651703); assay type: functional, Homo sapiens;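 further: His-tagged ARNT PAS-B domain paired with GST-TACC3 E629A dimer coactivator fragment; potency of inhibitors that break up the complex and lower AlphaScreen signal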
[15] = IC50 of Artemis nuclease activity blockers – biochemical, fluorescence intensity, dose response (AID 720701); assay type: functional;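 further: Artemis endonuclease enzyme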
[16] = Luminescent dose response cell-based high throughput screening assay for inhibitors of the Janus kinase 2 mutant JAK2V617F. [Related pubchem assays: 1446 (Primary screen.), 1521 (Confirmation assay.), 1486 (Counter screen.)]; assay type: functional
[17] = system: Streptococcus sp. 'group A'; assay: Streptococcus pyogenes SK(-)GAS viability under kanamycin – luminescence, BacTiterGlo, confirmation, counter-screen for streptokinase expression inhibitor project, dose response (AID 1900); assay type: functional, organism-based
[18] = target: T1, Heat shock factor protein 1 (Mus musculus, UniProt P38532); assay: decrease of HSF1-responsive luciferase luminescence – cell-based, NIH3T3, dose retest, confirmation (AID 2382); assay type: functional;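 further: NIH3T3 fibroblasts with HSF1-driven luciferase reporter stressed by proteasome inhibitor MG132; luminescence from HSF1-driven luciferase expression after 8 hours of MG132 stress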
T1 sequence (P38532 whole entry): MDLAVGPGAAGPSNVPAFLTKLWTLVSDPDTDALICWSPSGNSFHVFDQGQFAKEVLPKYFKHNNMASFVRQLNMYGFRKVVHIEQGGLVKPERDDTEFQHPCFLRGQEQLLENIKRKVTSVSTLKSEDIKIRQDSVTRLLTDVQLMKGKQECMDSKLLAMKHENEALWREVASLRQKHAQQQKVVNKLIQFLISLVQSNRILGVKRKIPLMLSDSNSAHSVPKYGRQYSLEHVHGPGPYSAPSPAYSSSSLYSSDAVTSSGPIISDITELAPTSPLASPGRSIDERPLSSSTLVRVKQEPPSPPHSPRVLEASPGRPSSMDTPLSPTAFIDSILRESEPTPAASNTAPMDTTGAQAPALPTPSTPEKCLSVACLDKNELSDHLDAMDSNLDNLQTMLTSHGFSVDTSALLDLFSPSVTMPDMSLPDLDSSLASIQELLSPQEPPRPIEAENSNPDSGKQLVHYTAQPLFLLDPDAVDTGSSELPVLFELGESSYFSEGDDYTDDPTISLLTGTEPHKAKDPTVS

Streptokinase A = target: T2, Streptokinase A (Streptococcus pyogenes serotype M1, UniProt P10520); assay: viability-normalized secreted streptokinase activity reduction – plasminogen activation absorbance, OD405, dose response (AID 1914); assay type: functional, Streptococcus pyogenes M1 GAS;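 further: secreted streptokinase activity via plasminogen activation per viability signal from cell pellet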
T2 sequence (P10520 whole entry): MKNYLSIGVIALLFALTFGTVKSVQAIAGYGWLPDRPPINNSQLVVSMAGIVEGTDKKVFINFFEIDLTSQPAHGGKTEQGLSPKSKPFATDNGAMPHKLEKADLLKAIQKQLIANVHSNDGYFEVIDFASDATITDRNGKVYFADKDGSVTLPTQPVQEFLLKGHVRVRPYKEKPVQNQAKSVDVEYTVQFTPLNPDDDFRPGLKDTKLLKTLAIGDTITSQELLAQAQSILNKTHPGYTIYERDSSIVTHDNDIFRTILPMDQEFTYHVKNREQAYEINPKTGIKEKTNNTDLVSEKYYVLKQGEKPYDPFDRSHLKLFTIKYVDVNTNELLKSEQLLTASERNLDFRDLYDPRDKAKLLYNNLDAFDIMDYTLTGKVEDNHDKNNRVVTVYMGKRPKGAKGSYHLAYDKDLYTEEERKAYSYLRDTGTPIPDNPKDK

Streptococcus = assay: GAS UMAA2166 growth inhibition – luminescence, BacTiterGlo, counter-screen for streptokinase expression inhibitor project, dose response (AID 1915); assay type: functional, organism-based;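 further: potency for reduction of bacterial viability or growth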
[19] = target: T3, Replicative DNA helicase DnaB (Mycobacterium tuberculosis, UniProt P9WMR3); assay: DnaB intein splicing inhibitors, dose response, biochemical, cell-free fluorescence (AID 449749); assay type: functional
T3 sequence (P9WMR3 whole entry): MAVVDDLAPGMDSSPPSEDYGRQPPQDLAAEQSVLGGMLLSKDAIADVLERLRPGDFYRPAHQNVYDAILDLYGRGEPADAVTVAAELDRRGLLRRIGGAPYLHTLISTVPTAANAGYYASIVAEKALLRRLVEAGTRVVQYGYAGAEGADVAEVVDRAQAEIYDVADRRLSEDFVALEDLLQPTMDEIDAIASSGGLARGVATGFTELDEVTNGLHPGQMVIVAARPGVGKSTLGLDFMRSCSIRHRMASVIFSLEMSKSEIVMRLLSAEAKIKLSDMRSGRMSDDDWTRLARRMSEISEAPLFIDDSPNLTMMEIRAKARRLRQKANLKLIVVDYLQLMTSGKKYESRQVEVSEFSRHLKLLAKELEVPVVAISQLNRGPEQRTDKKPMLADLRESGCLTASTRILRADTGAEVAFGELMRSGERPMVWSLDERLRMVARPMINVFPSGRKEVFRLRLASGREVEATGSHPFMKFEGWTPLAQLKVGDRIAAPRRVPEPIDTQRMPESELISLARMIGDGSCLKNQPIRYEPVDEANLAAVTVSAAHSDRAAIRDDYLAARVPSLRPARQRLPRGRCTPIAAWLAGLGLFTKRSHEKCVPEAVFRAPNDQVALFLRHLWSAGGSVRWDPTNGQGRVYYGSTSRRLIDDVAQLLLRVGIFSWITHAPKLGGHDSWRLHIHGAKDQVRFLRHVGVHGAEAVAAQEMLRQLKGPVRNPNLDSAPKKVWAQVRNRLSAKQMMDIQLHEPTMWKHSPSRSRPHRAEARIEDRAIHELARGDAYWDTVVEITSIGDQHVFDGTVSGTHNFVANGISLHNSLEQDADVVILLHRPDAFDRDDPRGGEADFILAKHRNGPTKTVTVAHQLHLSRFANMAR

Protein RecA = target: T4, Protein RecA (Mycobacterium tuberculosis, UniProt P9WHJ3); assay: Fluorescence Cell-Free Homogeneous Dose Retest to Identify Inhibitors of RecA-Intein Splicing Activity. [Related pubchem assays (depositor defined):AID2097, AID2223, AID489010, AID492950]; assay type: functional
T4 sequence (P9WHJ3 whole entry): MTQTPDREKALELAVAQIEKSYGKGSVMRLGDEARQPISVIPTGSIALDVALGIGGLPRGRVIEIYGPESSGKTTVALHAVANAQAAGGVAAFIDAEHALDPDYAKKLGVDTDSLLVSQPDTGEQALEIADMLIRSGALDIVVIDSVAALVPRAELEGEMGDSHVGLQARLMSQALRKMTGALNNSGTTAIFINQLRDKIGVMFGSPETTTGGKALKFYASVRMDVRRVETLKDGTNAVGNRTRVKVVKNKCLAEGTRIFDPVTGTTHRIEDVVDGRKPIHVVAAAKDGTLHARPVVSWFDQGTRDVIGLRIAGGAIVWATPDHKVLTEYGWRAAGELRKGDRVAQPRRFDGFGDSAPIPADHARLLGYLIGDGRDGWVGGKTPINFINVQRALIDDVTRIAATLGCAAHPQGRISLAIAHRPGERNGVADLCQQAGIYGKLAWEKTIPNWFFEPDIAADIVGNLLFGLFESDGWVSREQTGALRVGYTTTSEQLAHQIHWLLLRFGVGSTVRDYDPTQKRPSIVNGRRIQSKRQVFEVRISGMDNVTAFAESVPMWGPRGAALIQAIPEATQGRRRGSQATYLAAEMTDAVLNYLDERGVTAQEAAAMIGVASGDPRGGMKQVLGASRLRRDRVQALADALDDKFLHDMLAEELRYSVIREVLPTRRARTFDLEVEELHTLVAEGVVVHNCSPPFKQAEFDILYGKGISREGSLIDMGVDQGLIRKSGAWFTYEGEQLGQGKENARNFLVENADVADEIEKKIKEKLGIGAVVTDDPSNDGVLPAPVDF

Sequence of Luciferin 4-monooxygenase (P08659 whole entry): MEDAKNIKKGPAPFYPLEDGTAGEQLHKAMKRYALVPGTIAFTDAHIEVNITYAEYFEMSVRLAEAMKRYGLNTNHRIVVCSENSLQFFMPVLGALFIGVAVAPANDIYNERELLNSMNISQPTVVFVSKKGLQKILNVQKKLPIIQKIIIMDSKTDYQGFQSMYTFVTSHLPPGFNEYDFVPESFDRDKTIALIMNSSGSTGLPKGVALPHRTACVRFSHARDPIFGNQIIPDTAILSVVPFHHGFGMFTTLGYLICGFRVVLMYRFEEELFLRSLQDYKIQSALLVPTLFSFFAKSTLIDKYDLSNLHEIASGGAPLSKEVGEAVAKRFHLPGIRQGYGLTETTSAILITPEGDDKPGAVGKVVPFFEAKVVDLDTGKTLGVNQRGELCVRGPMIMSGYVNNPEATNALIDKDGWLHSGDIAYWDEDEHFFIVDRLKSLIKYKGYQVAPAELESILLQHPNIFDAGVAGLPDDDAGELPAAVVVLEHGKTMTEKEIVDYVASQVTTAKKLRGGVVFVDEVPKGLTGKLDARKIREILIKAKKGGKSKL
Sequence of 14-3-3 protein gamma (P61981 whole entry): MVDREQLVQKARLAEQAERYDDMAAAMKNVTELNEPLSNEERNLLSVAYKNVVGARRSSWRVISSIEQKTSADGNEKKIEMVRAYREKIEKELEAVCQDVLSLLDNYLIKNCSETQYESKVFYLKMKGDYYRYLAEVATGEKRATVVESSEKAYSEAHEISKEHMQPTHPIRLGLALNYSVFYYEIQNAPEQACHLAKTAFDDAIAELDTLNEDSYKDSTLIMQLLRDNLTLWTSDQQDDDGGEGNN
Sequence of Mannose-6-phosphate isomerase (P34949 whole entry): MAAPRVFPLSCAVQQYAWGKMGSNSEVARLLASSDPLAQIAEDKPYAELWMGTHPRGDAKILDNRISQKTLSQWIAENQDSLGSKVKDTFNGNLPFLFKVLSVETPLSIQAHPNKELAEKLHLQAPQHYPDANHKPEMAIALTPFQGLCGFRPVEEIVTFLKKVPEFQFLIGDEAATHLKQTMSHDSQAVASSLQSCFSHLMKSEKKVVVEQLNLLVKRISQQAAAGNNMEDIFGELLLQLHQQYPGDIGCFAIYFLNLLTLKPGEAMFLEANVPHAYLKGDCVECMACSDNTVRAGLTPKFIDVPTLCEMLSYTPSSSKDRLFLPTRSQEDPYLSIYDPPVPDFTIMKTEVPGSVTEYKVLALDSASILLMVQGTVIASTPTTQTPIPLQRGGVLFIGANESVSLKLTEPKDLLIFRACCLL
Sequence of Ephrin type-A receptor 4 (Q03137 whole entry): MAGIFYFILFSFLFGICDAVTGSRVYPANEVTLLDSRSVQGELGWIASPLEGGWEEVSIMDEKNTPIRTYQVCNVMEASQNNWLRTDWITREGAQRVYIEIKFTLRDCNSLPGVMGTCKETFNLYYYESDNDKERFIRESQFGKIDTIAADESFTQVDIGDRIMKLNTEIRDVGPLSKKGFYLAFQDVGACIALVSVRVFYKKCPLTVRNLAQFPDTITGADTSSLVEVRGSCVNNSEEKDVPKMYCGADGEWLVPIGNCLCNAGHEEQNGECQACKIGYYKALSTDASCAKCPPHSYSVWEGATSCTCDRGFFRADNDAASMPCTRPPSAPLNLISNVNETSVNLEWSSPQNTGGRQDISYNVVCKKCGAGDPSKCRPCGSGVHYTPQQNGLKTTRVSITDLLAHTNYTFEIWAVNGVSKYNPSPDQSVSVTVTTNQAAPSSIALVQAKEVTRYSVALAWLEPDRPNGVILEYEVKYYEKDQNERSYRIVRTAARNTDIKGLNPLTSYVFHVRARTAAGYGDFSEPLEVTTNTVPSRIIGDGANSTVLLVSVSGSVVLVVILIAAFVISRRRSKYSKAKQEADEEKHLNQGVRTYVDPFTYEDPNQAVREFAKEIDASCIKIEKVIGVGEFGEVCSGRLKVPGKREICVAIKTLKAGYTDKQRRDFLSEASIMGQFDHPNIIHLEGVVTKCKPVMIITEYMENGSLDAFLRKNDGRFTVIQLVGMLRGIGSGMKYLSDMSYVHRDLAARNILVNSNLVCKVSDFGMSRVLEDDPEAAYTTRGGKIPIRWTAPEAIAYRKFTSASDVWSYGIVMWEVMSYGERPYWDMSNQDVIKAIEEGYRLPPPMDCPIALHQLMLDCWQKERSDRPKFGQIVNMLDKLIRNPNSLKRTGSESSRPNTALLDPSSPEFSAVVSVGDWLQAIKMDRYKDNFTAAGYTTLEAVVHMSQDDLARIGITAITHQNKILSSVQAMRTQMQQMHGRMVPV

Structure (SMILES): FC(F)Oc1cccc(NC(=S)N2CCN(c3ccccn3)CC2)c1
- IC50 [1]: > 50 µM (not active)

Structure (SMILES): O=C(NCC1CCCN(Cc2cccc(C(F)(F)F)c2)C1)c1ccc(F)cc1 (stereo not given)
- EC50 [2]: 0.112 µM (active)
- EC50 [3]: > 195 µM (not active)
- EC50 [4]: > 60 µM (inconclusive)

Structure (SMILES): CC(C)c1cc(C(=O)O)c2cnn(C(C)C)c2n1
- IC50 [5]: > 109 µM (inactive)
- IC50 [6]: > 83.2 µM (inactive)

Structure (SMILES): CC(C)c1onc(C(=O)N2CCN(Cc3ccccc3)CC2)c1[N+](=O)[O-]
- IC50 [7]: 1.5 µM (active)

Structure (SMILES): Cc1cc(C)n(CNc2nc(C(F)(F)F)cs2)n1
- IC50 (Ephrin type-A receptor 4): > 100 µM (not active)

Structure (SMILES): CN1C(=S)SC(N(O)C(=O)Nc2ccccc2)C1(C)C (stereo not given)
- IC50 (14-3-3 protein gamma): > 50 µM (not active)

Structure (SMILES): c1ccc(-c2nc3c(ccc4ccccc43)[nH]2)nc1
- EC50 [8]: 4.22 µM (active)
- EC50 [9]: 27.1 µM (active)
- CC50 [10]: > 40 µM (active)
- CC50 [11]: 38.9 µM (active)
- CC50 [12]: > 20 µM (active)
- IC50 (cells): 18.9 µM (active)
- AC50 [13]: 119 µM (active)
- AC50 [14]: 79 µM (active)
- IC50 [15]: 14.4 µM (active)

Structure (SMILES): Cc1cccc(CS(=O)(=O)c2nnc([C@H](Cc3ccccc3)NC(=O)OC(C)(C)C)o2)c1
- IC50 [16]: 0.87 µM (active)
- EC50 [17]: 8.25 µM (active)
- EC50 [18]: 2.19 µM (active)
- EC50 (Streptokinase A): 1.5 µM (active)
- EC50 (Streptococcus): 10.2 µM (active)
- AC50 [19]: 2.68 µM (active)
- EC50 (Protein RecA): 5.42 µM (active)
